According to PubChem BioAssay (NCI):
Values joined by “and” are separate entries in the source; they are usually repeats but may differ in a detail not shown here. Equal entries are not always repeated.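 48-hour exposure; five concentrations; linearly interpolated endpoints. GI50 is the concentration that inhibits growth by half. At the TGI there is no net growth.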

Tests used:
Assay in all cases: DTP human tumour cell line panel, 48 h
[1] = tested on: HCT-116 colon
[2] = tested on: HL-60(TB) leukemia
[3] = tested on: SF-539 CNS
[4] = tested on: HOP-62 NSCLC
[5] = tested on: A498 renal
[6] = tested on: BT-549 breast
[7] = tested on: NCI-H460 lung
[8] = tested on: T-47D breast
[9] = tested on: MALME-3M melanoma
[10] = tested on: HCC-2998 colon

SMILES	TGI [1]	TGI [2]	TGI [3]	TGI [4]	TGI [5]	TGI [6]	TGI [7]	TGI [8]	TGI [9]	GI50 [1]	GI50 [2]	GI50 [9]	GI50 [3]	GI50 [4]	GI50 [6]	GI50 [7]	GI50 [8]	GI50 [10]	TGI [10]	GI50 [5]
Nc1ncc2ncn(C3CCC(CO)O3)c2n1 (configuration not stated)	> 100 µM	> 100 µM	> 100 µM	> 100 µM	> 100 µM	> 100 µM	> 100 µM	> 100 µM	–	–	–	–	–	–	–	–	–	–	–	–
COc1cc(OC)c2c(=O)c3cccc([N+](=O)[O-])c3n(C)c2c1	–	> 100 µM	> 100 µM	–	–	–	–	–	> 100 µM	–	–	–	–	–	–	–	–	–	–	–
Clc1ccc(CN2CCCN(Cc3ccc(Cl)cc3)C2c2cc3ccccc3c3ccccc23)cc1	> 100 µM	–	> 100 µM	> 100 µM	56.5 µM	> 100 µM	–	> 100 µM	37.6 µM	–	–	–	–	–	–	–	–	–	–	–
CCOC(=O)[C@@H]1CSC(CC)=C(C(=O)O)N1	> 100 µM	> 100 µM	> 100 µM	> 100 µM	–	> 100 µM	> 100 µM	> 100 µM	> 100 µM	> 100 µM	> 100000 nM	> 100 µM	> 100 µM	> 100 µM	> 100 µM	> 100000 nM	> 100000 nM	> 100 µM	> 100 µM	–
Cc1ccc(C2CC(c3ccc(Nc4ccnc5cc(Cl)ccc45)cc3)=NN2C=O)cc1 (configuration not stated)	> 100 µM	6.21 µM	> 100 µM	> 100 µM	–	> 100 µM	> 100 µM	> 100 µM	> 100 µM	25.2 µM	2270 nM	> 100 µM	> 100 µM	> 100 µM	5.64 µM	> 100000 nM	1650 nM	7.44 µM	> 100 µM	–
O=C1C(=O)C2(CC1S(=O)(=O)c1ccccc1)c1ccccc1-c1ccccc12 (configuration not stated)	31.9 µM	58 µM	–	44 µM	34.8 µM	–	36.2 µM	–	> 10 µM	–	–	–	–	–	–	–	–	–	30.1 µM	–
COc1cc2c3c(n(CCCNCCCNCCCN)c(=O)c2cc1OC)-c1cc2c(cc1C3=O)OCO2	> 100 µM	> 100 µM	> 100 µM	–	> 100 µM	–	> 100 µM	> 100 µM	–	43 µM	> 100000 nM	–	> 100 µM	–	–	> 100000 nM	> 100000 nM	–	–	> 100 µM
C1=CC2CCC1CN2CCC1CNc2ccccc21 (configuration not stated)	> 100 µM	> 100 µM	> 100 µM	> 100 µM	> 100 µM	–	–	–	> 100 µM	–	–	–	–	–	–	–	–	–	> 100 µM	–
COc1cc2c(c(OC)c1OC)C(=O)NCCC2	> 100 µM	> 63.1 µM	> 100 µM	> 100 µM	> 100 µM	–	> 100 µM	–	> 100 µM	–	–	–	–	–	–	–	–	–	> 100 µM	–
Nc1ccccc1C#Cc1ccccc1C#Cc1cccs1	25.4 µM	> 100 µM	32.9 µM	29.3 µM	29.5 µM	32.1 µM	> 100 µM	–	–	12.8 µM	11000 nM	–	16.1 µM	15.1 µM	15.9 µM	37300 nM	–	–	–	15.1 µM
C[C@H]1CC[P+](C)(c2ccccc2)C1 (some centres not stated)	> 100 µM	> 100 µM	> 100 µM	> 100 µM	> 100 µM	–	> 100 µM	–	> 100 µM	–	–	–	–	–	–	–	–	–	> 100 µM	–
CCCCCCCCCCCCCCCC[n+]1ccccc1	1.31 µM	1.21 µM	2.35 µM	2.35 µM and 1.9 µM	–	–	1.5 µM and 1.94 µM	3.42 µM and 3.91 µM	–	0.321 µM	326 nM	–	0.95 µM	1.05 µM and 0.482 µM	–	388 nM and 553 nM	500 nM and 445 nM	0.339 µM and 0.363 µM	1.43 µM and 1.68 µM	–
Cc1cc(NN=C(c2ccc(O)cc2)c2ccc(O)cc2)c([N+](=O)[O-])cc1[N+](=O)[O-]	35.7 µM	34.8 µM	–	18.2 µM	23.9 µM	35.5 µM	8.57 µM	–	23.2 µM	3.73 µM	2090 nM	9.31 µM	–	4.11 µM	11.4 µM	2620 nM	–	8.24 µM	28.7 µM	9.29 µM
COc1ccc(/C=N/NS(=O)(=O)c2ccccc2)cc1	> 100 µM	> 100 µM	> 100 µM	> 100 µM	> 100 µM	–	> 100 µM	–	> 100 µM	–	–	–	–	–	–	–	–	–	> 100 µM	–
O=c1cccc(Cl)[nH]1	> 100 µM	–	> 100 µM	> 100 µM	–	> 100 µM	> 100 µM	> 100 µM	> 100 µM	–	–	–	–	–	–	–	–	–	–	–
CCCCC1(C(NC(=O)c2ccccc2Cl)c2ccncc2)C(=O)N(c2ccccc2)N(c2ccccc2)C1=O (configuration not stated)	> 100 µM	40.8 µM	> 100 µM	> 100 µM	–	–	> 100 µM	–	> 100 µM	–	–	–	–	–	–	–	–	–	> 100 µM	–
